Assay results from publication PMC5698418 (Nature Communications, 2017).
Counter-ions that a name gives are not always drawn. Like-named read-outs stand apart in the source and are kept apart here.

System: BDNF-induced nuclear Arc expression in primary cortical neurons
Assay: Chemogenomic screen: high-content image-based assay of BDNF-induced nuclear Arc expression (96-well)
Type: cell-based, mouse
Protocol: To increase the throughput of our pharmacological screening for modulators of Arc, the above mentioned assay was adapted to cultures of mouse primary cortical neurons in 96-well plates.
All 319 compounds were initially tested at a final concentration of 16.7 µM with three biological replicates.
Screening of compounds in the chemogenomic library was carried out using DIV13 primary forebrain cortical neurons cultured on poly-L-lysine/laminin-coated 96-well plates (Ibidi USA, Madison, WI). Cells were seeded at a density of 30,000 cells per well and treated with the compound library and BDNF according to the experimental design presented in Fig. 3a. After experimental treatment, cells were processed for Arc and acetyl-H3K9 immunocytochemistry according to the protocol described above. Both antigens (Arc and acetyl-H3K9) were imaged using an IN Cell Analyzer 6000 imaging system and a ×40 objective. […] High-throughput quantification of nuclear Arc immunofluorescence signal was performed in a similar fashion than the low-throughput procedure described above but with the exception that acetyl-H3K9 was used as a nuclear mask to guide the automated quantification of nuclear Arc immunofluorescence signal.

[1] = chemogenomic (SMART) screen, BDNF-induced nuclear Arc expression, primary cortical neurons, BDNF control 19.5
[2] = nuclear Arc-positive cells relative to DMSO + BDNF control, negative values = decrease
[3] = BDNF-induced nuclear Arc expression, primary cortical neurons, chemogenomic screen
[4] = nuclear Arc-positive cells relative to DMSO control (BDNF), negative = decrease

Compound | Percentage of cell with nuclear Arc immunostaining above 2σ threshold [1] [%] | Fold-change — Normalized to DMSO control (BDNF) [2] [fold] | also measured
CC#C[C@]1(O)CC[C@H]2[C@@H]3CCC4=CC(=O)CCC4=C3[C@@H](c3ccc(N(C)C)cc3)C[C@@]21C [Mifepristone] | 43.7 | 2.2 | –
C[C@@H]1C(=O)O[C@H]2C[C@@]34[C@H]5C[C@@H](C(C)(C)C)[C@]36[C@@H](OC(=O)[C@@H]6O)O[C@@]4(C(=O)O5)[C@]21O [Ginkgolide A] | 19.3 | – | –
O=C(c1ccc2nccnc2c1)N1CCCCC1 [Ampalex] | 40.8 | 2.1 | –
CNCC(O)c1ccc(O)cc1 (stereo not drawn) [Synephrine] | 27.8 | 1.4 | –
CCN(CC)CCOCCOC(=O)C1(c2ccccc2)CCCC1 [Carbetapentane] | 17.2 | – | –
Clc1cccc(Cl)c1N=C1NCCN1 [Clonidine] | 12.2 | – | –
CNC(=O)Oc1ccc2c(c1)[C@]1(C)CCN(C)[C@@H]1N2C [Physostigmine] | – | – | Percentage of cell with nuclear Arc immunostaining above 2σ threshold: 18.3%
CN(C)CCCC1(c2ccc(F)cc2)OCc2cc(C#N)ccc21 (stereo not drawn) [Citalopram] | – | – | Percentage of cell with nuclear Arc immunostaining above 2σ threshold [3]: 6.1%
CCOC(=O)c1cncn1[C@H](C)c1ccccc1 [Etomidate] | – | – | Percentage of cell with nuclear Arc immunostaining above 2σ threshold: 13.0%
CCNC1=Nc2ccc(Cl)cc2C(C)(c2ccccc2)O1 (stereo not drawn) [Etifoxine] | – | – | Percentage of cell with nuclear Arc immunostaining above 2σ threshold: 0.0%
Nc1nnc(-c2cccc(Cl)c2Cl)c(N)n1 [Lamotrigine] | – | – | Percentage of cell with nuclear Arc immunostaining above 2σ threshold [3]: 4.8%
CO[C@]12C[C@@H](COC(=O)c3cncc(Br)c3)CN(C)[C@@H]1Cc1cn(C)c3cccc2c13 [Nicergoline] | – | – | Percentage of cell with nuclear Arc immunostaining above 2σ threshold [3]: 6.1%
Bromocryptine | – | 2.3 | Percentage of cell with nuclear Arc immunostaining above 2σ threshold: 45.0%
O=C(CCCCCCC(=O)Nc1ccccc1)NO [Vorinostat] | 19.8 | 1.0 | –
COc1ccc(CN(CCN(C)C)c2ccccn2)cc1 [Pyrilamine maleate] | 25.2 | 1.3 | –
Cc1cccc(C)c1NC(=O)CN1CCCC1=O [Nefiracetam] | 19.7 | 1.0 | –
CCN1CCC[C@H]1CNC(=O)c1c(OC)ccc(Br)c1OC [Remoxipride] | 35.4 | 1.8 | –
Nc1c2c(nc3ccccc13)CCCC2O (stereo not drawn) [Hydroxytacrine] | 36.9 | 1.9 | –
CN1CCc2cc3c(cc2[C@H]1[C@@H]1OC(=O)c2c1ccc1c2OCO1)OCO3 [(+)-Bicuculline] | – | 1.1 | Percentage of cell with nuclear Arc immunostaining above 2σ threshold: 20.9%
CC1=NN=C(c2ccc(N)cc2)c2cc3c(cc2C1)OCO3 [GYKI-52466] | 12.0 | – | –

Compound | Percentage of cell with nuclear Arc immunostaining above 2σ threshold [1] [%] | Fold-change — Normalized to DMSO control (BDNF) [2] [fold] | also measured
NC(=O)CN1CC(O)CC1=O (stereo not drawn) [Oxiracetam] | 41.5 | 2.1 | –
OCCCCC#Cc1cncc(OC[C@@H]2CCN2)c1 [Sazetidine A] | – | 1.8 | Percentage of cell with nuclear Arc immunostaining above 2σ threshold: 35.2%
CCCC(CCC)C(N)=O [Valpromide] | 19.8 | 1.0 | –
CNCC[C@@H](Oc1ccccc1C)c1ccccc1 [Atomoxetine] | 17.6 | – | –
Cc1nc(C(=O)NCC(=O)O)c(O)c2ccc(Oc3ccccc3)cc12 [FG-4592] | 26.8 | 1.4 | –
NC(=O)N1c2ccccc2C=Cc2ccccc21 [Carbamazepine] | – | – | Percentage of cell with nuclear Arc immunostaining above 2σ threshold [3]: 7.2%
CCOc1cc(CC(=O)N[C@@H](CC(C)C)c2ccccc2N2CCCCC2)ccc1C(=O)O [Repaglinide] | 19.5 | 1.0 | –
C[N+](C)(C)C[C@H](O)CC(=O)[O-] [Levocarnitine] | – | – | Percentage of cell with nuclear Arc immunostaining above 2σ threshold [3]: 10.1%
CC[C@]12CCCN3CCc4c(n(c5ccccc45)[C@@](O)(C(=O)OC)C1)[C@@H]32 [Vincamine] | 19.0 | – | –
CCN1CCC[C@H]1CNC(=O)c1cc(S(N)(=O)=O)ccc1OC [Levosulpiride] | 28.2 | 1.4 | –
COC[C@@H](NC(C)=O)C(=O)NCc1ccccc1 [Lacosamide] | – | – | Percentage of cell with nuclear Arc immunostaining above 2σ threshold: 6.7%
O=C(CCCN1CCC(O)(c2ccc(Br)cc2)CC1)c1ccc(F)cc1 [Bromperidol] | 28.9 | 1.5 | –
O=C1c2cc3c(cc2OC2CCCN12)OCCO3 (stereo not drawn) [CX-614] | – | -1.5 | Percentage of cell with nuclear Arc immunostaining above 2σ threshold: 13.1%
Cc1nc2n(c(=O)c1CCN1CCC(c3noc4cc(F)ccc34)CC1)CCCC2 [Risperidone] | – | – | Percentage of cell with nuclear Arc immunostaining above 2σ threshold: 6.3%
NCC1(CC(=O)O)CCCCC1 [Gabapentin] | – | – | Percentage of cell with nuclear Arc immunostaining above 2σ threshold: 9.0%
O=C1Cc2cc(CCN3CCN(c4nsc5ccccc45)CC3)c(Cl)cc2N1 [Ziprasidone] | – | – | Percentage of cell with nuclear Arc immunostaining above 2σ threshold [3]: 3.3%
O=C(c1ccccc1)c1ccc2n1CCC2C(=O)O (stereo not drawn) [Ketorolac] | 36.8 | 1.9 | –
O=C1CC2(CCCC2)CC(=O)N1CCCCN1CCN(c2ncccn2)CC1 [Buspirone] | – | – | Percentage of cell with nuclear Arc immunostaining above 2σ threshold [3]: 10.3%
O=C(O)C(O)C(O)C(=O)O.c1cnc2cc3c(cc2n1)[C@@H]1CNC[C@H]3C1 [Chantix] | – | – | Percentage of cell with nuclear Arc immunostaining above 2σ threshold [3]: 10.1%; Fold-change — Normalized to DMSO control (BDNF) [4]: -1.9 fold
O=C(O)CNC(=O)c1c(O)c2ccccc2n(Cc2ccccc2)c1=O [IOX2] | 45.4 | 2.3 | –

Compound | Percentage of cell with nuclear Arc immunostaining above 2σ threshold [1] [%] | Fold-change — Normalized to DMSO control (BDNF) [2] [fold] | also measured
O=c1cc(-c2ccc(O)c(O)c2)oc2cc(O)cc(O)c12 [Luteolin] | 22.1 | 1.1 | –
CC(NC(C)(C)C)C(=O)c1cccc(Cl)c1 (stereo not drawn) [Bupropion] | – | – | Percentage of cell with nuclear Arc immunostaining above 2σ threshold [3]: 9.0%
CC1(C)O[C@@H]2[C@@H](CO[C@@]3(COS(N)(=O)=O)OC(C)(C)O[C@@H]23)O1 [Topiramate] | – | – | Percentage of cell with nuclear Arc immunostaining above 2σ threshold [3]: 8.8%
COc1ccc2cc3[n+](cc2c1OC)CCc1cc2c(cc1-3)OCO2 [Berberine] | – | – | Percentage of cell with nuclear Arc immunostaining above 2σ threshold [3]: 2.2%
C[C@H](O)[C@H](O)[C@H]1CNc2nc(N)[nH]c(=O)c2N1 [Sapropterin] | 49.8 | 2.6 | –
O=c1cc(-c2ccccc2)oc2c(O)c(O)ccc12 [7,8-Dihydroxyflavone] | 32.7 | 1.7 | –
CCN1CCN(c2cc(-c3ccc(F)cc3)c3c(n2)CCCCCC3)CC1 [Blonanserin] | – | – | Percentage of cell with nuclear Arc immunostaining above 2σ threshold [3]: 10.9%
NCC(CC(=O)O)c1ccc(Cl)cc1 (stereo not drawn) [Baclofen] | 28.6 | 1.5 | –
CCN(CC)CCNC(=O)c1cc(S(C)(=O)=O)ccc1OC [Tiapride hydrochloride] | 20.9 | 1.1 | –
C[C@H](NCc1ccc(OCc2cccc(F)c2)cc1)C(N)=O [Safinamide] | 25.5 | 1.3 | –
COc1cccc(C2(O)CCCCC2CN(C)C)c1 (stereo not drawn) [Tramadol] | – | – | Percentage of cell with nuclear Arc immunostaining above 2σ threshold: 7.5%
CSc1ccc2c(c1)N(CCC1CCCCN1C)c1ccccc1S2 (stereo not drawn) [Thioridazine] | – | – | Percentage of cell with nuclear Arc immunostaining above 2σ threshold [3]: 0.0%
COc1cc2c(cc1OC)-c1cc3ccc(OC)c(OC)c3c[n+]1CC2 [Palmatine] | – | – | Percentage of cell with nuclear Arc immunostaining above 2σ threshold: 1.1%; Fold-change — Normalized to DMSO control (BDNF) [4]: -17.5 fold
CC(=O)/N=c1/sc(S(N)(=O)=O)nn1C [Methazolamide] | – | – | Percentage of cell with nuclear Arc immunostaining above 2σ threshold [3]: 11.8%
O=C1[C@@H]2[C@H]3CC[C@H](C3)[C@@H]2C(=O)N1CCCCN1CCN(c2ncccn2)CC1 [Tandospirone] | 25.7 | 1.3 | –
Cn1cc(C2=C(c3coc4ccccc34)C(=O)NC2=O)c2cc(Br)ccc21 [ING-135] | – | 1.7 | Percentage of cell with nuclear Arc immunostaining above 2σ threshold: 34.1%
CN1CC(=O)NC1=O [1-Methylhydantoin] | 31.8 | 1.6 | –
C[N+]12CCC(CC1)C(OC(=O)C(O)(c1ccccc1)c1ccccc1)C2 (stereo not drawn) [Clidinium bromide] | 24.4 | 1.2 | –
